Legend:
[1] = test system: Sqle tg mice injected with DEN and fed with a HFHC diet; format: in vivo
Protocol: Sqle tg mice injected with DEN (10 days of age) and fed with a HFHC diet (6 weeks of age). At 20 weeks of age, the mice will be randomized into two group and treated with either vehicle or Terbinafine (80 mg/kg/d, oral gavage). After 8 weeks terbinafine treatment, mice will be sacrificed to examine the therapeutic effect of Terbinafine. […]
The serum cholesterol, TG, ALT and AST level were detected by the Catalyst One Chemistry Analyzer according to the manufacturer's instructions (IDEXX, USA). Thirty microliters of serum from wild-type or Sqle tg mice were diluted to 90 μl by physiological saline buffer. The diluted samples and specific slides (cholesterol, ALT and AST) were then loaded into the analyzer for automatic analysis. […]

[2] = test system: Sqle tg mice fed with a HFHC diet; test: NASH development in HFHC-fed Sqle tg mice; format: in vivo
Protocol: (§1) WT and Sqle Tg mice were fed with normal diet (18% fat, 58% carbohydrate, 24% protein, 0% cholesterol) or high fat high cholesterol (HFHC: 43.7% fat, 36.6% carbohydrate, 19.7% protein, 0.203% cholesterol) diets (Specialty Feeds, Glen Forrest, Wash.) ad libitum for different time point to generate spontaneous NAFLD model and diet-induced NASH model. 2 mg tissues were harvested, and liver cholesterol levels were detected by Cholesterol/Cholesteryl Ester Quantification kit (ab65359, Abcam) according to manufacturer's instructions. All experiments were conducted three times in triplicates. Results were shown as the means±SEM. 100 mg tissues were harvested, and liver triglyceride levels were detected by triglyceride Quantification kit (ab65336, Abcam) according to manufacturer's instructions. All experiments were conducted three times in triplicates. Results were shown as the means±SEM. Sqle tg mice and their wild-type littermates (WT) were fed a high fat high cholesterol diet at the age of 6 weeks. At 17 weeks of age (Sqle tg mice) or 24 weeks of age (WT mice), the mice will be randomized into two group and treated with either vehicle or Terbinafine (80 mg/kg/d, oral gavage). After 8 (WT mice) or 9 weeks (Sqle tg mice) terbinafine treatment, mice will be sacrificed to examine the therapeutic effect of Terbinafine. Assessment of NAFLD: Liver histology were evaluated at sacrifice using H&E staining. Assessment of inflammation: Liver damage were determined using serum ALT and AST. PCR and cytokine arrays were used to evaluate expression of pro-inflammatory cytokines. Assessment of metabolic syndrome: Insulin tolerance tests and glucose tolerance tests will be determined as described above. 20 mg tissues were harvested, and liver […] Quantification kit (ab65341, Abcam) according to manufacturer's instructions. All experiments were conducted three times in triplicates. Results were shown as the means±SEM. The serum cholesterol, TG, ALT and AST level were detected by the Catalyst One Chemistry Analyzer according to the manufacturer's instructions (IDEXX, USA). Thirty microliters of serum from wild-type or Sqle tg mice were diluted to 90 μl by physiological saline buffer. The diluted samples and specific slides (cholesterol, ALT and AST) were then loaded into the analyzer for automatic analysis. For the glucose tolerance test, mice were fasted overnight by transferring mice to clean cages with no food or feces in upper or bottom of cage. Mice were then injected intraperitoneally with 0.75 U insulin per kg body weight (ITT) or 1 g glucose per kg body weight (GTT) in water. Blood from the tail vein was obtained before the injection and at 30, 60 and 90 min after the injection for determination of blood glucose using Glucose Meter.

HCC cell lines = test: Cholesterol/cholesteryl ester levels in cells; format: cell-based
Protocol: (§2) 10^6 cells or 2 mg tissues were harvested, and cholesterol/cholesteryl ester levels were detected by Cholesterol/Cholesteryl Ester Quantification kit (ab65359, Abcam) according to manufacturer's instructions. All experiments were conducted three times in triplicates. Results were shown as the means±SEM.

HFHC-fed WT mice = test: HFHC-induced NAFLD in WT mice; format: in vivo
From the text: as §1, with “model.” for “model. 2 mg tissues were harvested, and liver cholesterol levels were detected by Cholesterol/Cholesteryl Ester Quantification kit (ab65359, Abcam) according to manufacturer's instructions. All experiments were conducted three times in triplicates. Results were shown as the means±SEM. 100 mg tissues were harvested, and liver triglyceride levels were detected by triglyceride Quantification kit (ab65336, Abcam) according to manufacturer's instructions. All experiments were conducted three times in triplicates. Results were shown as the means±SEM.”, “analysis.” for “analysis. For the glucose tolerance test, mice were fasted overnight by transferring mice to clean cages with no food or feces in upper or bottom of cage. Mice were then injected intraperitoneally with 0.75 U insulin per kg body weight (ITT) or 1 g glucose per kg body weight (GTT) in water. Blood from the tail vein was obtained before the injection and at 30, 60 and 90 min after the injection for determination of blood glucose using Glucose Meter.”

HKCI2 [3] = test: Cell growth, cell viability (MTS) assay; format: cell-based, human; conditions: 25 μM to 50 μM
Protocol: (§3) 2 NAFLD-HCC cell lines (HKCI2, HKCI10) and one liver cancer cell line HepG2 were used in this study. Cell lines were maintained in RPMI-1640 or DMEM medium (Gibco BRL, Rockville, Md.) with 10% fetal bovine serum.
(§4) Cell viability was determined by the 3-(4,5-dimethylthiazol-2-yl)-5-(3-carboxyme-thoxyphenyl)-2-(4-sulfophenyl)-2H-tetrazolium (MTS) assay (Promega, Madison, Wis.).

HepG2 [4] = test: Cell growth, cell viability (MTS) assay; format: cell-based, human; conditions: 25 μM to 50 μM
Protocol: as §3, §4

SQLE and PCNA expression = test: Western blot of SQLE and PCNA expression in treated cells; format: cell-based
HKCI10 [5] = test: Cell growth, cell viability (MTS) assay; format: cell-based; conditions: 25 μM to 50 μM
Protocol: as §3, §4

[6] = test system: orthotopic HKCI2 xenografts; test: Orthotopic HKCI2 xenograft (human NAFLD-HCC) nude mice model; format: in vivo, Balb/c nude mice
Protocol: An orthotopic human NAFLD-HCC mouse model was established using HKCI2 cells. HKCI2 cells (1×10^7 cells in 0.1 ml PBS) were injected subcutaneously into the left dorsal flank of 4-week-old male Balb/c nude mice. Subcutaneous tumors were harvested once they reached about 10 mm^3 and cut into 1.0 mm^3 pieces. One piece of a tumor was implanted into the left liver lobe in a separate group of nude mice (4-week-old). Four weeks after implantation, these mice were divided into vehicle group (PBS, p.o.) and terbinafine group (80 mg/kg, p.o.). Eight weeks post-implantation, the mice were sacrificed and examined. 10^6 cells or 2 mg tissues were harvested, and cholesterol/cholesteryl ester levels were detected by Cholesterol/Cholesteryl Ester Quantification kit (ab65359, Abcam) according to manufacturer's instructions. All experiments were conducted three times in triplicates. Results were shown as the means±SEM.

HKCI10 [7] = test: Colony formation assay; format: cell-based; conditions: 25 μM to 50 μM
Protocol: as §3
(§5) For cell colony formation assay, liver cancer cells (1000/well) were plated in 6-well plates. Different dose of Terbinafine were added to these cells at the second day. After culturing for 5-7 days, cells were fixed with 70% ethanol and stained with 0.5% crystal violet solution. Colonies with more than 50 cells per colony were counted. All experiments were conducted three times in triplicates.

HKCI2 [8] = test: Colony formation assay; format: cell-based, human; conditions: 25 μM to 50 μM
Protocol: as §3, §5

HepG2 [9] = test: Colony formation assay; format: cell-based, human; conditions: 25 μM to 50 μM
Protocol: as §3, §5

HepG2 xenografts = test: Subcutaneous HepG2 xenograft nude mice model; format: in vivo, Balb/c nude mice
Protocol: A xenograft human liver cancer mouse model was established using HepG2 cells. HepG2 cells (1×10^7 cells in 0.1 ml PBS) were injected subcutaneously into the left dorsal flank of 4-week-old male Balb/c nude mice. Once the subcutaneous tumors reached about 100 mm^3, these mice were divided into vehicle group (PBS, p.o.) and terbinafine group (80 mg/kg, p.o.) randomly. Tumor diameter was measured every days for 10 days. For survival analysis, tumor diameter was measured every two days for 40 days. Tumor volume (mm^3) was estimated by measuring the longest and shortest diameter of the tumor and calculating as follows: volume=(shortest diameter)^2×(longest diameter)×0.5. Care of animals and all experimental procedures were approved by the Animal Ethics Committee of the Chinese University of Hong Kong. After more than 2 weeks, the mice were sacrificed, and the tumors were weighed and fixed in formalin for histological analysis. […]
as §2

[10] = DEN-injected HFHC-fed Sqle tg mice
[11] = livers of Sqle tg mice, western blot
[12] = 80 mg/kg/d oral gavage, 9 weeks
[13] = 80 mg/kg/d oral gavage, 8 weeks
[14] = subcutaneous HepG2 xenografts, 80 mg/kg/d, p.o.

## CN(C/C=C/C#CC(C)(C)C)Cc1cccc2ccccc12 [terbinafine]
[1]; 80 mg/kg/d oral gavage, 8 weeks, P<0.01
  tumor number: significantly reduced
[1]; 80 mg/kg/d oral gavage, 8 weeks, vs 8/9 mice in PBS, P<0.05
  tumor incidence: 4/9
[1]; [10]
  NADP^+/NADPH ratio: reducing
  liver cholesterol levels: decreased
  liver/body weight ratio: decreased
  serum cholesterol levels: decreased
[1]; [11]
  Dnmt3a protein expression: inhibited
  Pten expression: restored
  Sqle protein expression: inhibited
[1]; vs vehicle
  HCC tumorigenesis and cell proliferation (H&E and Ki-67 staining of livers): reduction
[2]
  insulin sensitivity (ITTs): markedly improved
  liver cholesterol level: significantly decreased
  liver free fatty acid accumulation: significantly decreased
  liver triglyceride: significantly decreased
  serum ALT level: significantly decreased
  serum AST level: significantly decreased
  serum triglyceride: significantly decreased
[2]; [12]
  body weight gain: significantly attenuated
  liver weight: significantly attenuated
  liver/body weight ratio: significantly attenuated
[2]; qPCR
  liver inflammation and fibrosis level (mRNA expression of inflammation and fibrosis mediators): reduced
[2]; vs PBS control
  steatohepatitis (H&E staining of livers): reduction
HCC cell lines
  cholesteryl ester levels: suppressed
  free cholesterol levels: suppressed
HFHC-fed WT mice
  HFHC-induced serum cholesterol: attenuated
  liver steatosis (H&E staining and free fatty acid assay): reduction
  serum ALT level: attenuated
  serum AST level: attenuated
  serum triglyceride: attenuated
HFHC-fed WT mice; [13]
  body weight: significantly decrease
  liver weight: significantly decrease
HKCI2 [3]
  cell lines proliferation by cell growth assay: markedly suppressed
HepG2 [4]
  cell lines proliferation by cell growth assay: markedly suppressed
SQLE and PCNA expression
  PCNA expression: suppressed
  SQLE expression: suppressed
HKCI10 [5]
  cell lines proliferation by cell growth assay: markedly suppressed
[6]; 80 mg/kg, p.o., both in terms of tumor size or tumor weight, P<0.01
  suppression of growth of orthotopic HKCI2 xenografts: > 85%
[6]; HKCI2 xenografts
  tumor cholesteryl ester levels: suppressed
  tumor free cholesterol levels: suppressed
HKCI10 [7]
  cell lines proliferation by colony formation assay: markedly suppressed
HKCI2 [8]
  cell lines proliferation by colony formation assay: markedly suppressed
HepG2 [9]
  cell lines proliferation by colony formation assay: markedly suppressed
HepG2 xenografts; 80 mg/kg, p.o., P<0.01
  suppression of growth of subcutaneous HepG2 xenografts: 77.8%
HepG2 xenografts; HepG2 xenografts
  tumor cholesteryl ester levels: suppressed
  tumor free cholesterol levels: suppressed
HepG2 xenografts; [14]
  tumor volume: significant reductions
  tumor weight: significant reductions
HepG2 xenografts; tumor size 400 mm^3 as cutoff, P<0.01
  overall survival of mice harboring HepG2 xenografts: significantly prolonged

Reference: patent US11340226B2, “Squalene epoxidase in the diagnosis and treatment of non-alcoholic fatty liver diseases” (priority 2018, dated 2022)
